The text below walks through data of US20250145665A1, “MACROCYCLIC PEPTIDES USEFUL AS MODULATORS OF TNF ALPHA” (Bristol-Myers Squibb Company, priority 2023, published 2025).

Molecules are shown by their SMILES. Starred links: 1 amine or outer side, 2 acyl side, 3 side chain; linkers in the order of their positions; H or OH if unused. Positions of bridges follow the written chain, without caps; N, C: chain ends. Non-standard residues stand in square brackets, D forms with d. Residues, ends and D or L forms follow the SMILES beside them. *: point of attachment. X39 = Cn1nc(C(=O)NCc2ccc(-c3ccc(C[C@H](N[*:1])C(=O)[*:2])cc3)cc2)c2ccccc21; X5 = Cn1nc(C(=O)Nc2ccc(-c3ccc(C[C@H](N[*:1])C(=O)[*:2])cc3)cc2)c2ccccc21; X47 = O=C(Nc1ccc(-c2ccc(C[C@H](N[*:1])C(=O)[*:2])cc2)cc1)c1coc2ccccc12; Bip(4'-NH) = O=C([C@H](Cc1ccc(-c2ccc(N[*:3])cc2)cc1)N[*:1])[*:2]; Bip(4'-CONHMe) = CNC(=O)c1ccc(-c2ccc(C[C@H](N)C(=O)O)cc2)cc1; Indazole3carbonyl(1-CH2COOH) = O=C(O)Cn1nc(C(=O)*)c2ccccc21; X70 = O=C([C@H](Cc1ccc(-c2ccc(CN[*:3])cc2)cc1)N[*:1])[*:2]; X18 = N=C(NCCC[C@@H](N[*:1])C(=O)[*:2])NCCc1ccc(O)cc1; X4 = N=C(NCCCc1cccc(N)c1)NCCC[C@@H](N[*:1])C(=O)[*:2]; Ala(imidazol-2-yl) = N[C@@H](Cc1ncc[nH]1)C(=O)O; Ala(morpholin-4-yl) = N[C@@H](CN1CCOCC1)C(=O)O; Benzoyl(3-OCH2COOH) = O=C(O)COc1cccc(C(=O)*)c1; Benzoyl(4-OCH2COOH) = O=C(O)COc1ccc(C(=O)*)cc1; Bip = N[C@@H](Cc1ccc(-c2ccccc2)cc1)C(=O)O; X86 = O=C(O)Cn1ccc2cc(C(=O)*)ccc21; Cha = N[C@@H](CC1CCCCC1)C(=O)O; Sar = CNCC(=O)O

Sequence of TNFα (P01375 77-233 limits assumed): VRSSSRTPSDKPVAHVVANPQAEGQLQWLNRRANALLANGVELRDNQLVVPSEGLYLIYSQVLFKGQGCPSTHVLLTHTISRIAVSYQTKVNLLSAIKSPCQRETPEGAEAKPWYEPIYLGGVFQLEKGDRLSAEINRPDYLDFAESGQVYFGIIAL

The first experiment has as its target TNFα (Homo sapiens, UniProt P01375). In words: TNF-Induced HEK-Blue Assay. The class given is cell-based.
Settings: not given
Regarding `CC(C)C[C@@H]1NC(=O)[C@H](CCCNC(=N)N)NC(=O)[C@H](C(C)C)NC(=O)[C@@H]2CCCN2C(=O)[C@H](C(C)C)NC(=O)[C@@H](CCCNC(=N)NCCc2ccc(O)cc2)NC(=O)[C@H](CC(=O)O)NC(=O)[C@@H]2CCCN2C(=O)CN(C)C(=O)[C@H](Cc2ccc(-c3ccc(NC(=O)c4nn(CC(=O)O)c5ccccc45)cc3)cc2)NC(=O)[C@H](Cc2ccc(-c3ccccc3)cc2)NC(=O)[C@H](CN2CCOCC2)NC(=O)CSC[C@@H](C(=O)NCC(N)=O)NC1=O` [Example 403] ({CH2CO}-[Ala(morpholin-4-yl)][Bip][Bip(4'-NH)](Indazole3carbonyl(1-CH2COOH))[Sar]PD[X18]VPVRLCG-NH2; thioether N-13), the IC50 is 0.05 to 0.2 µM.

The same experiment, now with this note: HEK-Blue-CD40L cells, NF-kB-driven secreted alkaline phosphatase reporter; TNFα 0.5 ng/ml; 18 h; read-out: TNF induced HEK-Blue assay IC50 value.
Take `CC(C)C[C@@H]1NC(=O)[C@H](CCCNC(=N)N)NC(=O)[C@H](C(C)C)NC(=O)[C@@H]2CCCN2C(=O)[C@H](C(C)C)NC(=O)[C@@H](CCCNC(=N)NCCCc2cccc(N)c2)NC(=O)[C@H](CC(=O)O)NC(=O)[C@@H]2CCCN2C(=O)CN(C)C(=O)[C@H](Cc2ccc(-c3ccc(NC(=O)c4nn(C)c5ccccc45)cc3)cc2)NC(=O)[C@H](Cc2ccc(-c3ccccc3)cc2)NC(=O)[C@H](CN2CCOCC2)NC(=O)CSC[C@@H](C(=O)NCC(N)=O)NC1=O` [Example 394] ({CH2CO}-[Ala(morpholin-4-yl)][Bip][X5][Sar]PD[X4]VPVRLCG-NH2; thioether N-13): the IC50 fell in the range of 0.05 to 0.2 µM. Same read-out and setting: as for `CC[C@H](C)[C@@H]1NC(=O)[C@@H](CCCNC(=N)N)NC(=O)[C@H](CC(=O)O)NC(=O)[C@H](Cc2cnc[nH]2)NC(=O)CN(C)C(=O)[C@H](Cc2ccc(-c3ccc(NC(=O)c4ccc(OCC(=O)O)cc4)cc3)cc2)NC(=O)[C@H](Cc2ccc(-c3ccc(C(=O)NC)cc3)cc2)NC(=O)[C@H](CC2CCCCC2)NC(=O)CSC[C@@H](C(=O)NCC(N)=O)NC(=O)[C@H](CC(C)C)NC(=O)[C@H](Cc2cnc[nH]2)NC(=O)[C@H](C(C)C)NC(=O)[C@@H]2CCCN2C1=O` [Example 395] ({CH2CO}-[Cha][Bip(4'-CONHMe)][Bip(4'-NH)](Benzoyl(4-OCH2COOH))[Sar]HD[dR]IPVHLCG-NH2; thioether N-13), the figure is less than 0.05 µM; as for `CC[C@H](C)[C@@H]1NC(=O)[C@@H](CCCNC(=N)N)NC(=O)[C@H](CC(=O)O)NC(=O)[C@H](Cc2cnc[nH]2)NC(=O)CN(C)C(=O)[C@H](Cc2ccc(-c3ccc(C(=O)NC)cc3)cc2)NC(=O)[C@H](Cc2ccc(-c3ccccc3)cc2)NC(=O)[C@H](CC2CCCCC2)NC(=O)CSC[C@@H](C(=O)NCC(N)=O)NC(=O)[C@H](CC(C)C)NC(=O)[C@H](Cc2cnc[nH]2)NC(=O)[C@H](C(C)C)NC(=O)[C@@H]2CCCN2C1=O` [Example 396] ({CH2CO}-[Cha][Bip][Bip(4'-CONHMe)][Sar]HD[dR]IPVHLCG-NH2; thioether N-13), less than 0.05 µM. Consider `CC[C@H](C)[C@@H]1NC(=O)[C@@H](CCCNC(=N)N)NC(=O)[C@H](CC(=O)O)NC(=O)[C@H](Cc2cnc[nH]2)NC(=O)CN(C)C(=O)[C@H](Cc2ccc(-c3ccccc3)cc2)NC(=O)[C@H](Cc2ccc(-c3ccc(C(=O)NC)cc3)cc2)NC(=O)[C@H](CC2CCCCC2)NC(=O)CSC[C@@H](C(=O)NCC(N)=O)NC(=O)[C@H](CC(C)C)NC(=O)[C@H](Cc2cnc[nH]2)NC(=O)[C@H](C(C)C)NC(=O)[C@@H]2CCCN2C1=O` [Example 397] ({CH2CO}-[Cha][Bip(4'-CONHMe)][Bip][Sar]HD[dR]IPVHLCG-NH2; thioether N-13), for which the half-maximal inhibitory concentration (IC50) was in the range of 0.05 to 0.2 µM.

Take `CC(C)C[C@@H]1NC(=O)[C@H](CCCNC(=N)N)NC(=O)[C@H](C(C)C)NC(=O)[C@@H]2CCCN2C(=O)[C@H](C(C)C)NC(=O)[C@@H](CCCNC(=N)N)NC(=O)[C@H](CC(=O)O)NC(=O)[C@@H]2CCCN2C(=O)CN(C)C(=O)[C@H](Cc2ccc(-c3ccc(NC(=O)c4ccc5c(ccn5CC(=O)O)c4)cc3)cc2)NC(=O)[C@H](Cc2ccc(-c3ccccc3)cc2)NC(=O)[C@H](CN2CCOCC2)NC(=O)CSC[C@@H](C(=O)NCC(N)=O)NC1=O` [Example 398] ({CH2CO}-[Ala(morpholin-4-yl)][Bip][Bip(4'-NH)](X86)[Sar]PD[dR]VPVRLCG-NH2; thioether N-13): the IC50 is less than 0.05 µM. Still for that read-out and setting: as for `CC[C@H](C)[C@@H]1NC(=O)[C@@H]2CCCN2C(=O)[C@H]([C@@H](C)CC)NC(=O)[C@@H](CCCNC(=N)N)NC(=O)[C@H](CC(=O)O)NC(=O)[C@H](Cc2ccccc2)NC(=O)CN(C)C(=O)[C@H](Cc2ccc(-c3ccc(CNC(=O)c4cccc(OCC(=O)O)c4)cc3)cc2)NC(=O)[C@H](Cc2ccc(-c3ccccc3)cc2)NC(=O)[C@H](CC2CCCCC2)NC(=O)CSC[C@@H](C(=O)NCC(N)=O)NC(=O)[C@H](CC(C)C)NC(=O)[C@H](Cc2ncc[nH]2)NC1=O` [Example 399] ({CH2CO}-[Cha][Bip][X70](Benzoyl(3-OCH2COOH))[Sar]FD[dR]IPI[Ala(imidazol-2-yl)]LCG-NH2; thioether N-13), the figure is 0.2 to 2 µM.

For `CC[C@H](C)[C@@H]1NC(=O)[C@@H]2CCCN2C(=O)[C@H]([C@@H](C)CC)NC(=O)[C@@H](CCCNC(=N)N)NC(=O)[C@H](CC(=O)O)NC(=O)[C@H](Cc2ccccc2)NC(=O)CN(C)C(=O)[C@H](Cc2ccc(-c3ccc(CNC(=O)c4nn(C)c5ccccc45)cc3)cc2)NC(=O)[C@H](Cc2ccc(-c3ccccc3)cc2)NC(=O)[C@H](CC2CCCCC2)NC(=O)CSC[C@@H](C(=O)NCC(N)=O)NC(=O)[C@H](CC(C)C)NC(=O)[C@H](Cc2cnc[nH]2)NC1=O` [Example 400] ({CH2CO}-[Cha][Bip][X39][Sar]FD[dR]IPIHLCG-NH2; thioether N-13), the half-inhibitory concentration (IC50) was in the range of 0.2 to 2 µM. In the case of `CC[C@H](C)[C@@H]1NC(=O)[C@@H]2CCCN2C(=O)[C@H]([C@@H](C)CC)NC(=O)[C@@H](CCCNC(=N)N)NC(=O)[C@H](CC(=O)O)NC(=O)[C@H](Cc2ccccc2)NC(=O)CN(C)C(=O)[C@H](Cc2ccc(-c3ccc(NC(=O)c4coc5ccccc45)cc3)cc2)NC(=O)[C@H](Cc2ccc(-c3ccccc3)cc2)NC(=O)[C@H](CC2CCCCC2)NC(=O)CSC[C@@H](C(=O)NCC(N)=O)NC(=O)[C@H](CC(C)C)NC(=O)[C@H](Cc2ncc[nH]2)NC1=O` [Example 401] ({CH2CO}-[Cha][Bip][X47][Sar]FD[dR]IPI[Ala(imidazol-2-yl)]LCG-NH2; thioether N-13), the IC50 was 0.05 to 0.2 µM. Still for that read-out and setting: to `CC[C@H](C)[C@@H]1NC(=O)[C@@H]2CCCN2C(=O)[C@H]([C@@H](C)CC)NC(=O)[C@@H](CCCNC(=N)N)NC(=O)[C@H](CC(=O)O)NC(=O)[C@H](Cc2ccccc2)NC(=O)CN(C)C(=O)[C@H](Cc2ccc(-c3ccc(NC(=O)c4nn(C)c5ccccc45)cc3)cc2)NC(=O)[C@H](Cc2ccc(-c3ccccc3)cc2)NC(=O)[C@H](CC2CCCCC2)NC(=O)CSC[C@@H](C(=O)NCC(N)=O)NC(=O)[C@H](CC(C)C)NC(=O)[C@H](Cc2ncc[nH]2)NC1=O` [Example 402] ({CH2CO}-[Cha][Bip][X5][Sar]FD[dR]IPI[Ala(imidazol-2-yl)]LCG-NH2; thioether N-13) belongs 0.05 to 0.2 µM.

One may read the IC50 as the concentration needed to halve the response being measured.
